In patent publication US9879032B2, “Pyridine compounds” (Daiichi Sankyo Company, Limited, priority 2015, dated 2018):

system: plasma ALP (80-90% containing TNAP); experiment: Inhibitory test of plasma TNAP activity in B6 mouse; format: in vivo; settings: administered orally, average inhibition from 0 hour to 6 hours after administration
Protocol: After blood sampling from the tail vein using a heparin-treated hematocrit capillary tube (EM Meister Hematocrit Capillary Tube, AS ONE Corp.) (as the sample before compound administration), each test compound suspended in a 0.5% methylcellulose solution (powder purchased from Wako Pure Chemical Industries, Ltd. was adjusted to 0.5% with Otsuka distilled water) was administered orally to the mouse. 1, 2, 4, 6, and 24 hours after the administration, blood was collected from the tail vein using a heparin-treated hematocrit capillary tube to obtain a plasma sample. The plasma sample was added to an assay buffer (1 M Tris, 1 M MgCl2, 20 mM ZnCl2, and water, pH 7.5), and the mixture was left standing for 5 minutes. Then, the absorbance at 405 nm was measured and used as a blank. The substrate pNPP was added to the plasma sample and incubated at room temperature for 180 minutes. Then, the absorbance (ABS: 405 nm) was measured using a microplate reader (model plus 384, Molecular Devices, LLC), and the concentration of produced p-nitrophenol was calculated. The blank was subtracted from all measurement values to calculate TNAP activity at each time point with the TNAP activity of the sample before compound administration defined as 100%. The pharmaceutical effect of the test compound was evaluated by the average inhibition of plasma ALP (80-90% containing TNAP) activity for 6 hours from 0 hour to 6 hours after the administration of the test compound. It was calculated according to the following expression: 100−((plasma ALP activity at 0 hr+plasma ALP activity at 1 hr)*1/2+(plasma ALP activity at 1 hr+plasma ALP activity at 2 hr)*1/2+(plasma ALP activity at 2 hr+plasma ALP activity at 4 hr)*2/2+(plasma ALP activity at 4 hr+plasma ALP activity at 6 hr)*2/2)/6.

Row | Structure (SMILES) | Plasma ALP inhibition (6 h ave. inhibition %)
1 | COc1ccc(Br)cc1S(=O)(=O)[N-]c1cnc2c(c1)C(=O)N[C@@H](CO)CO2.[K+] [Example 53, Potassium [(5-bromo-2-methoxyphenyl)sulfonyl][(3S)-3-(hydroxymethyl)-5-oxo-2,3,4,5-tetrahydropyrido[3,2-f][1,4]oxazepin-7-yl]azanide] | 59.2%
2 | O=C1N[C@@H](CO)COc2ncc([N-]S(=O)(=O)c3cc(Cl)ccc3OC(F)(F)F)cc21.[K+] [Example 54, Potassium {[5-chloro-2-(trifluoromethoxy)phenyl]sulfonyl}[(3S)-3-(hydroxymethyl)-5-oxo-2,3,4,5-tetrahydropyrido[3,2-f][1,4]oxazepin-7-yl]azanide] | 74.8%
3 | COc1ccc(Cl)cc1S(=O)(=O)[N-]c1cnc2c(c1)C(=O)NC1(CC1)CO2.[K+] [Example 55, Potassium [(5-chloro-2-methoxyphenyl)sulfonyl](5′-oxo-4′,5′-dihydrospiro[cyclopropane-1,3′-pyrido[3,2-f][1,4]oxazepin]-7′-yl)azanide] | 58.9%
4 | COc1ccc(F)cc1S(=O)(=O)[N-]c1cnc2c(c1)C(=O)NC1(CC1)CO2.[K+] [Example 57, Potassium [(5-fluoro-2-methoxyphenyl)sulfonyl](5′-oxo-4′,5′-dihydrospiro[cyclopropane-1,3′-pyrido[3,2-f][1,4]oxazepin]-7′-yl)azanide] | 53.5%
5 | O=C1NC2(CC2)COc2ncc([N-]S(=O)(=O)c3cc(Cl)ccc3OC(F)(F)F)cc21.[K+] [Example 58, Potassium {[5-chloro-2-(trifluoromethoxy)phenyl]sulfonyl}(5′-oxo-4′,5′-dihydrospiro[cyclopropane-1,3′-pyrido[3,2-f][1,4]oxazepin]-7′-yl)azanide] | 50.3%
6 | CCOc1ccc(F)cc1S(=O)(=O)[N-]c1cnc2c(c1)C(=O)NC1(CC1)CO2.[K+] [Example 59] | 66.2%
7 | COc1ccc(OC)c(S(=O)(=O)[N-]c2cnc3c(c2)C(=O)NC2(CC2)CO3)c1.[K+] [Example 61, Potassium [(2,5-dimethoxyphenyl)sulfonyl](5′-oxo-4′,5′-dihydrospiro[cyclopropane-1,3′-pyrido[3,2-f][1,4]oxazepin]-7′-yl)azanide] | 67.5%
